Measurements taken from patent publication US10233192B2, “Derivatives of uncialamycin, methods of synthesis and their use as antitumor agents” (priority 2013, dated 2019).
Read-outs that look alike come from different tables or passages of the source.

Columns and labels:
[1] = Chemical stability observed on preparation and storage; format: physicochemical; details: observation on handling and storage; both acid- and base-sensitive, slowly decomposed at −78° C
[2] = system: OVCAR3 cell line; assay: ATP luminescence (CellTiter-Glo) cell viability assay, OVCAR3; format: cell-based; details: Homo sapiens, read-out: EC50 (nM) OVCAR3
Experimental: (§1) An ATP luminescence assay was used, the procedure being as follows: Cells were seeded at 1×10^3 cells/well in 96-well plates for 3 h for ATP CellTiter^Glo™ assays, respectively. Serial dilutions (1:3) of compounds were added to the wells. Plates were allowed to incubate for 72 h. A CellTiter^Glo™ cell viability kit from Promega was used to measure ATP content of cells treated with compounds following manufacturer's instruction. A decrease in the ATP content is a measure of decrease in cellular viability. The EC50 value—the concentration at which an agent reduces cell viability by 50% of the maximum effect—was determined using PRISM™ software, version 5.0 (GraphPad Software, La Jolla, Calif., USA).
(§2) The compounds were tested against ADR, a multi-drug resistant breast cancer cell line as well as the H226, N87, and OVCAR3 cell lines.

[3] = system: ADR multi-drug resistant breast cancer cell line; assay: ATP luminescence (CellTiter-Glo) cell viability assay, ADR; format: cell-based; details: 72 h, read-out: EC50 (nM) ADR
Experimental: as §1, §2

[4] = system: H226 cell line; assay: ATP luminescence (CellTiter-Glo) cell viability assay, H226; format: cell-based; details: Homo sapiens, read-out: EC50 (nM) H226
Experimental: as §1, §2

[5] = system: N87 cell line; assay: ATP luminescence (CellTiter-Glo) cell viability assay, N87; format: cell-based; details: 72 h, read-out: EC50 (nM) N87
Experimental: as §1, §2

[6] = system: cancer cells; details: antitumor activity, Nicolaou et al. 2007, 2008; cited from earlier work
[7] = OVCAR-3, OVCAR3, 72 h, ATP content
[8] = ADR multidrug resistant breast cancer cell line, ATP content
[9] = NCI-H226, H226, 72 h, ATP content

C[C@@H](O)[C@@]12O[C@]13c1cc(O)c4c(c1N[C@H]2C#C/C=C\C#C[C@H]3O)C(=O)c1cc2c(cc1C4=O)CNC2 [Compound 97, Isoindoline-uncialamycin 97]
stability [1]: extremely unstable

C[C@@H](O)[C@@]12O[C@]13c1cc(O)c4c(c1N[C@H]2C#C/C=C\C#C[C@H]3O)C(=O)c1c(CN)cccc1C4=O [Compound 48ca, 6-Aminomethyl-uncialamycin]
stability [1]: extremely unstable

C[C@@H](O)[C@@]12O[C@]13c1cc(O)c4c(c1N[C@H]2C#C/C=C\C#C[C@H]3O)C(=O)c1ccc(N)cc1C4=O [Compound 36a, 8-Amino-uncialamycin, reference compound]
EC50 [2, 7]: 7.4 nM
EC50 [3, 8]: 0.67 nM
EC50 [4, 9]: 2.4 nM
EC50 ([5]; N87, ATP content): 2.7 nM

C[C@@H](O)[C@@]12O[C@]13c1cc(O)c4c(c1N[C@H]2C#C/C=C\C#C[C@H]3O)C(=O)c1ccc(CN)cc1C4=O [Compound 48aa, 8-Aminomethyl-uncialamycin]
EC50 [2, 7]: 0.32 nM
EC50 [3, 8]: 0.02 nM
stability [1]: extremely unstable
EC50 [4, 9]: 0.028 nM
EC50 ([5]; N87, ATP content): 0.011 nM

C=CCOC(=O)N1c2c(cc(O)c3c2C(=O)c2ccc(CN)cc2C3=O)[C@@]23O[C@@]2([C@@H](C)O[Si](CC)(CC)CC)[C@@H]1C#C/C=C\C#C[C@H]3O [Compound 111]
stability [1]: much more stable than 48aa

C[C@@H](O)[C@@]12O[C@]13c1cc(O)c4c(c1N[C@H]2C#C/C=C\C#C[C@H]3O)C(=O)c1cc(CN)ccc1C4=O [Compound 48ba, 7-Aminomethyl-uncialamycin]
EC50 [2, 7]: 0.066 nM
EC50 [3, 8]: 0.029 nM
stability [1]: extremely unstable
EC50 [4, 9]: 0.012 nM
EC50 ([5]; N87, ATP content): 0.01 nM

CNCc1ccc2c(c1)C(=O)c1c(O)cc3c(c1C2=O)N[C@H]1C#C/C=C\C#C[C@@H](O)[C@@]32O[C@@]12[C@@H](C)O [Compound 108, N-methyl-8-aminomethyl-uncialamycin 108]
stability [1]: extremely unstable

C[C@@H](O)[C@@]12O[C@]13c1cc(O)c4c(c1N[C@H]2C#C/C=C\C#C[C@H]3O)C(=O)c1ccccc1C4=O [Compound 26a, Uncialamycin]
IC50 [6]: picomolar
EC50 [2, 7]: 4.7 nM
EC50 [3, 8]: 0.39 nM
melting point: 175 °C (dec.)
EC50 [4, 9]: 1.8 nM
EC50 ([5]; N87, ATP content): 1.8 nM

CC(C)[C@H](NC(=O)CCCCCN1C(=O)C=CC1=O)C(=O)N[C@@H](CCCNC(N)=O)C(=O)Nc1ccc(COC(=O)NCc2ccc3c(c2)C(=O)c2c(O)cc4c(c2C3=O)N[C@H]2C#C/C=C\C#C[C@@H](O)[C@@]43O[C@@]23[C@@H](C)O)cc1 [Compound 116]
EC50 ([2]; OVCAR-3, 72 h): 16 nM
EC50 [3]: 3.3 nM
EC50 ([4]; NCI-H226, 72 h): 4.2 nM
EC50 [5]: 8.7 nM

C[C@@H](O)[C@@]12O[C@]13c1cc(O)c4c(c1N[C@H]2C#C/C=C\C#C[C@@H]3O)C(=O)c1ccc(CN)cc1C4=O [Compound 48ab]
EC50 [2, 7]: 0.28 nM
EC50 [3, 8]: 0.054 nM
EC50 [4, 9]: 0.051 nM
EC50 ([5]; N87, ATP content): 0.023 nM

COc1cc2c(c(OC)c1CN)C(=O)c1c(O)cc3c(c1C2=O)N[C@H]1C#C/C=C\C#C[C@@H](O)[C@@]32O[C@@]12[C@@H](C)O
EC50 [2, 7]: 0.4 nM
EC50 [3, 8]: 0.34 nM
EC50 [4, 9]: 0.077 nM
EC50 ([5]; N87, ATP content): 0.15 nM

C[C@@H](O)[C@@]12O[C@]13c1cc(O)c4c(c1N[C@H]2C#C/C=C\C#C[C@H]3O)C(=O)c1cccc(CN)c1C4=O [Compound 48da, 9-Aminomethyl-uncialamycin]
stability [1]: extremely unstable
